# Marks after values point to notes of the source that are not given here.
# Assays:
# Col1a1 mRNA = assay: Hepatic Col1a1 mRNA expression by qPCR, CDAA/high-fat diet mouse model; assay type: in vivo; settings: CDAA/high-fat fed mice
# Source text: Mice were fed either choline-sufficient (CS) or choline deficient high-fat diets (31% total calories; “CDAA/high-fat”). The NASH inducing diet was instigated 6 weeks prior to the commencement of treatment in order to design the study as a treatment/reversal set-up rather than prophylaxis.
# After 6 weeks of either the CS- or CDAA diet, mice were orally administered Compound A or comparison Compound N, both at 2 doses, 0.15 mmol/kg bw/day (low-dose, LD) and 0.3 mmol/kg bw per day (high-dose, HD). The test substances were administered orally as admix to the high-fat diet. Hepatic fibrosis was assessed by both measurement of hydroxyproline (HYP) content and Sirius Red (SR) morphometry. Fibrosis, inflammation and metabolism related transcripts levels were measured by quantitative real-time polymerase chain reaction (qPCR).
# Studies were performed in male C56BL/6J mice (9 weeks old). Mice were divided into 6 experimental groups (n=9 per group) containing either CS or CDAA/high-fat diets, as described above. The NASH inducing CDAA/high fat diet was instigated 6 weeks prior to the commencement of treatment in order to assess treatment/reversal rather than prophylaxis. […] Compound A was administered orally as admix to the high-fat diet whilst GLP-1 agonist was delivered via intraperitoneal injection (i.p.). Fibrosis, inflammation and metabolism related transcripts levels were measured by quantitative real-time polymerase chain reaction (qPCR) in isolated liver tissue.
# CDAA/high-fat fed mice [1] = assay: Hepatic fibrosis by Sirius Red (SR) morphometry, CDAA/high-fat diet mouse model; assay type: in vivo
# Description: (§1) In Biological Examples 1-7, studies were performed in male C56BL/6J mice (9 weeks old). Mice were fed either choline-sufficient (CS) or choline deficient high-fat diets (31% total calories; “CDAA/high-fat”). The NASH inducing diet was instigated 6 weeks prior to the commencement of treatment in order to design the study as a treatment/reversal set-up rather than prophylaxis.
# In Biological Examples 1-5, mice were divided into 6 experimental groups (n=9 per group) and fed either CS or CDAA/high-fat diets. […] Hepatic fibrosis was assessed by both measurement of hydroxyproline (HYP) content and Sirius Red (SR) morphometry. Fibrosis, inflammation and metabolism related transcripts levels were measured by quantitative real-time polymerase chain reaction (qPCR).
# In order to more accurately quantify the amount location and functional relevance of the hepatic fibrosis, Sirius Red (SR) morphometry was performed. In contrast to examples 1 and 2 where biochemical assessment of hydroxyproline (HYP) content measuring collagen in the large vessels was used, SR morphometry quantifies the more functionally relevant sinusoidal collagen deposits. 10 areas per slide were measured using 100× magnification.
# CDAA/high-fat fed mice [2] = assay: Hepatic lipidomic analysis, CDAA/high-fat diet mouse model; assay type: in vivo; settings: Compound A 112 mg/kg bw per day or equimolar EPA, orally
# Description: as §1
# In Biological Example 7, after 6 weeks of either the CS or CDAA/high-fat diet, mice were administered 112 mg/kg bw per day of Compound A, or an equimolar dose of eicosapentaenoic acid (EPA), delivered orally. Hepatic lipidomic analysis was performed in isolated liver samples from CS (n=9), Compound A (n=9) and EPA (n=8) groups.
# To further understand the effects of Compound A on hepatic lipid metabolism, lipidomic analysis of CS- and CDAA/high-fat fed mice (“CD”) was performed in isolated liver tissue.
# [3] = Body weight, liver weight and food intake in ob/ob AMLN mice; assay type: in vivo, mouse
# Description: (§2) Obese diet-induced B6.V-Lepob/Jrj mice (ob/ob) are consistently fibrosis (liver) prone when cholesterol (2%), 40% fat (containing 18% trans-fatty acids) and 20% fructose are added to a high-caloric diet (i.e., AMLN high-fat diet). ob/ob mice on AMLN diet (termed ‘ob/ob AMLN mice’) develop steatohepatitis and fibrosis within a shorter timeframe ([…]) compared with wild-type C57BL/6 mice (AMLN mice) fed the same diet. ob/ob AMLN mice provide an obese diet-induced model of NASH that also allows the study of effects on glycemic control. Development of NASH in the ob/ob AMLN model is confirmed by biopsy.
# (§3) In Biological Examples 10-12, 15, and 19, studies were performed in male ob/ob mice (5 weeks old) fed an AMLN high-fat diet for 15 weeks, then randomized into 3 groups (n=10 per group) to receive either 112 mg/kg bw per day of Compound A via diet, 30 mg/kg bw per day pioglitazone via diet or no treatment (vehicle) for a further 4 weeks. An oral glucose tolerance test (OGTT) was performed at week 3. Hepatic fibrosis was assessed via measurements of hepatic fibrogenic/fibrolytic gene expression by RNA sequencing at 4 weeks.
# (§4) In Biological Examples 10, 13-14, and 16-18, studies were performed in male ob/ob mice (5 weeks old) fed an AMLN high-fat diet for 18 weeks, then randomized into 6 groups (n=10 per group) to receive either Compound A (at 3 different daily doses, 45 mg/kg, 90 mg/kg or 135 mg/kg) via diet, 30 mg/kg bw per day obeticholic acid (OCA) via diet, or no treatment (vehicle) for a further 8 weeks. Assessment of NASH related parameters and fibrosis was made at study end by quantitative immune histochemistry (IHC) measurements.
# ob/ob AMLN mice [4] = assay: Plasma ALT and AST (hepatocellular damage) in ob/ob AMLN mice; assay type: in vivo, mouse; settings: 8 weeks
# Description: as §2, §4
# To assess the effects of Compound A and pioglitazone on hepatocellular injury or damage in ob/ob AMLN mice, plasma alanine aminotransferase (ALT) and aspartate transaminase (AST) were measured after 8 weeks of administration.
# ob/ob AMLN mice [5] = assay: Plasma triglyceride and total cholesterol levels in ob/ob AMLN mice; assay type: in vivo, mouse; settings: 8 weeks
# Description: as §2, §4
# ob/ob AMLN mice [6] = assay: Oral glucose tolerance test (OGTT) and glycemic control in ob/ob AMLN mice; assay type: in vivo, mouse; settings: after 3 weeks, Compound A 112 mg/kg, pioglitazone 30 mg/kg
# Description: as §2, §3
# After 3 weeks of administration of Compound A (112 mg/kg), pioglitazone, or vehicle control, an oral glucose tolerance test (OGTT) was performed in ob/ob AMLN mice.
# [7] = 8 weeks, Compound A 45, 90 and 135 mg/kg, OCA 30 mg/kg bw per day
structure (smiles),measurement,setting,value
"CC/C=C\C/C=C\C/C=C\C/C=C\C/C=C\CCCCOC(CC)C(=O)O (stereo not shown) [Compound A, 2-((5Z,8Z,11Z,14Z,17Z)-icosa-5,8,11,14,17-pentaenyloxy)butanoic acid]",Col1a1 (relative mRNA expression),"Col1a1 mRNA; Compound A 0.3 mmol/kg bw/day oral, GLP-1a 0.4 mg/kg once weekly i.p., alone or combined",6.2***
same,Col1a1 (relative mRNA expression),Col1a1 mRNA; HD 0.3 mmol/kg bw per day,6***
same,Col1a1 (relative mRNA expression),Col1a1 mRNA; LD 0.15 mmol/kg bw/day,10***
same,Fibrosis area (mean %),CDAA/high-fat fed mice [1]; HD 0.3 mmol/kg bw per day,1.56* %
same,Fibrosis area (mean %),CDAA/high-fat fed mice [1]; LD 0.15 mmol/kg bw/day,0.76*** %
same,hepatic cholesteryl ester,CDAA/high-fat fed mice [2],significantly reduced
same,hepatic diglycerides (DG),CDAA/high-fat fed mice [2],significantly reduced
same,hepatic free fatty acids (FFA),CDAA/high-fat fed mice [2],significantly reduced
same,hepatic triglyceride (TG),CDAA/high-fat fed mice [2],significantly reduced
same,body weight,"[3]; 4 weeks, Compound A 112 mg/kg",no effect
same,body weight,[3]; [7],"neither Compound A (45 mg/kg, 90 mg/kg, and 135 mg/kg) nor OCA significantly affected body weight"
same,food intake,[3]; [7],not affected
same,plasma ALT,"ob/ob AMLN mice [4]; Compound A 90 mg/kg, p<0.01",marked and significant reduction
same,plasma AST,"ob/ob AMLN mice [4]; Compound A 90 mg/kg, p<0.05",significantly reduced
same,plasma ALT,"ob/ob AMLN mice [4]; Compound A 135 mg/kg, p<0.001",marked and significant reduction
same,plasma AST,"ob/ob AMLN mice [4]; Compound A 135 mg/kg, p<0.01",significantly reduced
same,plasma total cholesterol levels,ob/ob AMLN mice [5]; Compound A 90 mg/kg,comparable reductions
same,plasma triglyceride levels,ob/ob AMLN mice [5]; Compound A 90 mg/kg,comparable reductions
same,plasma total cholesterol levels,ob/ob AMLN mice [5]; Compound A 135 mg/kg,comparable reductions
same,plasma triglyceride levels,ob/ob AMLN mice [5]; Compound A 135 mg/kg,comparable reductions
same,fasting plasma glucose levels,ob/ob AMLN mice [6],significant reductions
same,"glucose excursion after glucose load (AUC 0-240 mins), OGTT",ob/ob AMLN mice [6],significantly reduced

# Reference: patent publication US12440466B2, “Fatty acid derivatives for treating non-alcoholic steatohepatitis” (BASF AS, priority 2017, dated 2025)
